Structures can show the parent of a compound that is named as a salt.
How the values were obtained:
[1] = Pharmacokinetic profile of cannabinoid sulfate esters compared to CBD; conditions: for Cmax / Tmax / half-life: plasma
Text: The PK profile of certain exemplary cannabinoid sulfate esters, including the half-life (T1/2), maximum plasma concentration (Cmax), and time to reach Cmax (Tmax), is shown compared to CBD in the table below.

intraocular pressure = conditions: normotensive rabbit; cited from earlier work
[2] = pH 7.4; cited from earlier work

SMILES	Cmax [1]	Tmax [1]	half-life [1]	T1/2 ([1]; half-life)	Cmax ([1]; Cmax, maximum plasma concentration)	intraocular pressure (intraocular pressure)	increase of aqueous solubility over the parent endocannabinoid [2]
C=C(C)[C@@H]1CCC(C)=C[C@H]1c1c(O)cc(CCCCC)cc1OS(=O)(=O)O [CBD sulfate morpholinium salt, morpholin-4-ium (1′R,2′R)-6-hydroxy-5′-methyl-4-pentyl-2′-(prop-1-en-2-yl)-1′,2′,3′,4′-tetrahydro-[1,1′-biphenyl]-2-yl sulfate]	10 ng/mL	1 h	32.7 h				
C=C(C)[C@@H]1CCC(C)=C[C@H]1c1c(O)cc(CCCCC)cc1OS(=O)(=O)O [CBD sulfate piperazinium salt, piperazin-1-ium (1′R,2′R)-6-hydroxy-5′-methyl-4-pentyl-2′-(prop-1-en-2-yl)-1′,2′,3′,4′-tetrahydro-[1,1′-biphenyl]-2-yl sulfate]		1 h		3.0 h	19 ng/mL		
C=C(C)[C@@H]1CCC(C)=C[C@H]1c1c(O)cc(CCCCC)cc1OS(=O)(=O)[O-].[Na+] [CBD sulfate sodium salt, sodium (1′R,2′R)-6-hydroxy-5′-methyl-4 pentyl-2′-(prop-1-en-2-yl)-1′,2′,3′,4′-tetrahydro-[1,1′-biphenyl]-2-yl sulfate]	12 ng/mL	1 h	2.9 h				
C=C(C)[C@@H]1CCC(C)=C[C@H]1c1c(O)cc(CCCCC)cc1O [CBD, cannabidiol, reference compound]	4.8 ng/mL	0.5 h	3.9 h				
CCCCC/C=C\C/C=C\C/C=C\C/C=C\CCCC(=O)NCCOP(=O)(O)O [phosphate ester pro-drug of anandamide]						reduced the intraocular pressure	> 16 500 fold

Source: US12655094B2, “Cannabinoid sulfate esters, their salts and uses thereof” (LONDON PHARMACEUTICALS AND RESEARCH CORPORATION, priority 2020, dated 2026)
